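Cultured in 96-well plates, cells were exposed to test compound for 48 hours across five concentrations. GI50 is the concentration that inhibits growth by half. Definition used: TGI = concentration required for complete inhibition of growth.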
Tests used:
Assay in all cases: growth of human tumour cells (NCI), 48 h
OVCAR-5 ovarian = test system: OVCAR-5 ovarian
UACC-62 melanoma = test system: UACC-62 melanoma
KM12 colon = test system: KM12 colon
EKVX NSCLC = test system: EKVX NSCLC
MDA-MB-231 breast = test system: MDA-MB-231 breast
HL-60(TB) leukemia = test system: HL-60(TB) leukemia
HCC-2998 colon = test system: HCC-2998 colon
HCT-116 colon = test system: HCT-116 colon
COLO 205 colon = test system: COLO 205 colon
PC-3 prostate = test system: PC-3 prostate

Row | Structure (SMILES) | TGI (OVCAR-5 ovarian) | TGI (UACC-62 melanoma) | TGI (KM12 colon) | TGI (EKVX NSCLC) | TGI (MDA-MB-231 breast) | TGI (HL-60(TB) leukemia) | TGI (HCC-2998 colon) | TGI (HCT-116 colon) | TGI (COLO 205 colon) | TGI (PC-3 prostate) | GI50 (OVCAR-5 ovarian) | GI50 (UACC-62 melanoma) | GI50 (KM12 colon) | GI50 (EKVX NSCLC) | GI50 (MDA-MB-231 breast) | GI50 (HL-60(TB) leukemia) | GI50 (HCC-2998 colon) | GI50 (HCT-116 colon) | GI50 (COLO 205 colon) | GI50 (PC-3 prostate)
1 | O=C(O)CP(=O)(O)O | > 100 µM | > 100 µM | > 100 µM | > 100 µM | > 100 µM | > 100 µM | > 100 µM | > 100 µM | > 100 µM | > 100 µM |  |  |  |  |  |  |  |  |  | 
2 | C=CC[C@@H]1/C=C(\C)C[C@H](C)C[C@H](OC)[C@H]2O[C@@](O)(C(=O)C(=O)N3CCCC[C@H]3C(=O)O[C@H](/C(C)=C/C3CC[C@@H](O)[C@H](OC)C3)[C@H](C)[C@@H](O)CC1=O)[C@H](C)C[C@@H]2OC (some centres undefined) | 37.2 µM | 27.6 µM | 28.7 µM | 34.5 µM | 31.4 µM | 38.4 µM | 34.7 µM | 26.7 µM | 36.6 µM | 25.7 µM | 17.2 µM | 13.4 µM | 14.9 µM | 14.2 µM | 15.8 µM | 16.4 µM | 18.8 µM | 13.8 µM | 19.3 µM | 12.1 µM
3 | Cc1cc(=O)oc2c(OS(C)(=O)=O)c(OS(C)(=O)=O)ccc12 | > 100 µM | > 100 µM | > 100 µM | > 100 µM | > 100 µM | > 100 µM | > 100 µM | > 100 µM | > 100 µM | > 100 µM |  |  |  |  |  |  |  |  |  | 
4 | Brc1ccccc1C=NC12CC3CC(CC(C3)C1)C2 | > 100 µM | > 100 µM | > 100 µM | > 100 µM | > 100 µM | 4.37 µM | > 100 µM | > 100 µM | > 100 µM | > 100 µM |  |  |  |  |  |  |  |  |  | 
5 | CC(=O)OC1Oc2cc(C)c(C)cc2-c2oc(=O)c(-c3ccc(F)cc3)cc21 (centres undefined) | > 100 µM | 76.3 µM | 22.4 µM | > 100 µM | 65 µM | > 100 µM | 28.2 µM | 46.2 µM | 26.1 µM | 39.8 µM | 6.3 µM | 3.92 µM | 3.55 µM | 5.23 µM | 8.34 µM | 3.71 µM | 3.97 µM | 4.23 µM | 7.3 µM | 9.67 µM
6 | N=c1n(Cc2ccccc2)c(N)cc(=O)n1Cc1ccccc1 | 14.9 µM | 12 µM | 29.3 µM | 5.42 µM | 42.5 µM | 4.93 µM | 29.1 µM | 10.7 µM | 13.8 µM | 19.9 µM | 4.27 µM | 3.55 µM | 4.75 µM | 2.12 µM | 7.45 µM | 2.21 µM | 4.96 µM | 2.74 µM | 3.97 µM | 2.74 µM
7 | S=C(c1ccc2c(c1)OCO2)N1CCN(c2cccc(Cl)c2)CC1 | > 100 µM | > 100 µM | 29.7 µM | > 100 µM | > 100 µM | 0.642 µM | 16.4 µM | 14.5 µM |  | > 100 µM | 7.69 µM | 0.429 µM | 0.447 µM | 4.52 µM | 5.73 µM | 0.195 µM | 1.27 µM | 0.454 µM | 0.706 µM | 4.08 µM
8 | CCOC(=O)c1c(Cl)c2c(n1Cc1cccc(OC)c1)-c1oncc1CC2 | > 100 µM | 29.3 µM | 77.9 µM | > 100 µM | > 100 µM | 5.81 µM | 19.6 µM | 24.2 µM | 11.3 µM | > 100 µM | 10.1 µM | 0.608 µM | 0.732 µM | 3.05 µM | 4.61 µM | 0.557 µM | 3.01 µM | 0.904 µM | 1.62 µM | 5.4 µM
9 | Cc1[nH]nc2ccc3nc(-c4ccc5[nH]ncc5c4)c4c(c3c12)CCCC4 | 13.9 µM | 6.13 µM | 13.6 µM | 25.7 µM | 12.7 µM | 4.32 µM | 15.1 µM | 11.3 µM | 10.8 µM | 23.6 µM | 2.53 µM | 0.717 µM | 0.63 µM | 2.95 µM | 1.71 µM | 1.73 µM | 2.19 µM | 0.473 µM | 1.09 µM | 2.86 µM
10 | Nc1ccc(-c2nc3ccccc3o2)cc1S | 45.3 µM | 26 µM | 35.2 µM | 55.3 µM | 23.6 µM | 42 µM | 32.2 µM | 28.3 µM | > 100 µM | 22.5 µM | 19.2 µM | 13.2 µM | 8.1 µM | 11.6 µM | 6.14 µM | 14.5 µM | 14.4 µM | 15.1 µM | 27.5 µM | 6.96 µM
11 | CNC(=O)NC(CCCCNC(=O)OCc1ccccc1)C(=O)OCc1ccccc1 (centres undefined) | 98.2 µM | 33.1 µM | > 100 µM | > 100 µM | > 73.9 µM | 65.6 µM | > 72.9 µM | > 100 µM | 34.2 µM | > 100 µM |  |  |  |  |  |  |  |  |  | 
12 | COc1cc(-n2cnc(-c3ccc(Cl)cc3)c2)cc(OC)c1OC | 45.4 µM | > 100 µM | > 100 µM | > 100 µM | > 100 µM | 35.4 µM | 30.4 µM | > 100 µM | 29.8 µM | 31.7 µM | 18.6 µM | 62.4 µM | > 100 µM | > 100 µM | 85.7 µM | 15.3 µM | 16.8 µM | > 100 µM | 15.4 µM | 12.7 µM
13 | Cc1c(-c2nnc(-c3ccc(F)cc3)o2)nnn1-c1ccnc2c(C(F)(F)F)cccc12 | > 100 µM | > 100 µM | > 100 µM | > 100 µM | > 100 µM | > 100 µM | > 100 µM | > 100 µM | > 100 µM | > 100 µM | 66.7 µM | > 100 µM | 89.5 µM | 31.8 µM | 29 µM | > 100 µM | > 100 µM | 16.7 µM | 42.1 µM | 23.1 µM
14 | O=C1/C(=C/c2ccccc2F)CN(C(=O)C(Cl)Cl)C/C1=C\c1ccccc1F | 2.29 µM | 1.08 µM | 0.685 µM | 2.06 µM | 1.58 µM | 2.25 µM | 1.96 µM | 0.286 µM | 2.57 µM | 1.08 µM | 0.796 µM | 0.378 µM | 0.245 µM | 0.451 µM | 0.404 µM | 0.363 µM | 0.696 µM | 0.131 µM | 0.711 µM | 0.296 µM

From PubChem BioAssay (NCI)
